{"source": "patent US20080021074A1", "about": "“Pharmaceutical Compositions and Related Methods of Treatment” (QUESTCOR PHARMACEUTICALS, INC., priority 2006, published 2008)", "origin": "cited, not measured here", "key": {"CYP2C19": {"target": "CYP2C19 (Homo sapiens, UniProt P33261)", "sequence (P33261 whole entry)": "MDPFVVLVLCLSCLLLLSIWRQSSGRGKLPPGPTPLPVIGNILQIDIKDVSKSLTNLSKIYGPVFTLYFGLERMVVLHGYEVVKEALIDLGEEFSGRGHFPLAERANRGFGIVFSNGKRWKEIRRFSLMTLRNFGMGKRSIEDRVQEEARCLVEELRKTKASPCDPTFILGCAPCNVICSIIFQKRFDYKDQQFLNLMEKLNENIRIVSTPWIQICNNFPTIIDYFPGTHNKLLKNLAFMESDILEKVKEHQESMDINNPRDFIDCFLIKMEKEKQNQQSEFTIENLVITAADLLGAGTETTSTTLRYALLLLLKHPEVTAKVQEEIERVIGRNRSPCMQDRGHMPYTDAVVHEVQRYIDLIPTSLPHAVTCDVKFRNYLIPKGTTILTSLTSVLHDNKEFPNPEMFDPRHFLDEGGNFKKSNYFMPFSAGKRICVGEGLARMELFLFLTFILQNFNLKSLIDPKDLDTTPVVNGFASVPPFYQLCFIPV"}, "[1]": {"conditions": "tizanidine and baclofen combined"}, "spasticity": {"system": "spasticity", "conditions": "clinical studies"}, "CYP1A2 [2]": {"target": "CYP1A2 (Homo sapiens, UniProt P05177)", "sequence (P05177 whole entry)": "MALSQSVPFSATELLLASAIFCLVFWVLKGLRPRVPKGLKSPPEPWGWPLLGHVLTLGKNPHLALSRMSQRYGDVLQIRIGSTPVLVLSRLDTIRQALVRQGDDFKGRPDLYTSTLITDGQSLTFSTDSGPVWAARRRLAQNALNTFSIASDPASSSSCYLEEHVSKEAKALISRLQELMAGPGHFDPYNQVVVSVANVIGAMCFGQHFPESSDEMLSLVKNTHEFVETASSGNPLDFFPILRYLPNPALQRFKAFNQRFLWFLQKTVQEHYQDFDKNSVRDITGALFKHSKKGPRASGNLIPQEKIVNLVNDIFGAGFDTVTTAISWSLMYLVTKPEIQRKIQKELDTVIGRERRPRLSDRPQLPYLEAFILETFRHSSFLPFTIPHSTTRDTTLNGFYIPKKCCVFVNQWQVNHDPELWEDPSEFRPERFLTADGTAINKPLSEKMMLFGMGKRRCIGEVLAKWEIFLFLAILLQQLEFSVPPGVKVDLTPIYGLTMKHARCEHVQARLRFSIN", "conditions": "in vitro"}, "mice": {"system": "mice", "conditions": "single administration"}, "CYP2B6": {"system": "CYP2B6", "conditions": "primary human hepatocyte cultures, concentration-dependent"}, "monkeys": {"system": "monkeys", "conditions": "single administration"}, "CYP1A2 [3]": {"system": "CYP1A2", "conditions": "primary human hepatocyte cultures, concentration-dependent"}, "CYP3A4": {"system": "CYP3A4", "conditions": "primary human hepatocyte cultures, concentration-dependent"}}, "note": "Structures can show the parent of a compound that is named as a salt."}
{"smiles": "NC(=O)CS(=O)(=O)C(c1ccccc1)c1ccccc1", "note": "[modafinil sulfone]", "values": [{"measurement": "inhibition of CYP2C19", "setting": "CYP2C19", "result": "reversible inhibitors"}]}
{"smiles": "NCC(CC(=O)O)c1ccc(Cl)cc1", "note": "(stereo not drawn) [baclofen, 4-amino-3-(4-chlorophenyl)-butanoic acid]", "values": [{"measurement": "pharmacokinetic interaction", "setting": "[1]", "result": "without significant pharmacokinetic interaction"}]}
{"smiles": "Clc1ccc2nsnc2c1NC1=NCCN1", "note": "[Tizanidine, 5-chloro-4-(2-imidazolin-2-ylamino)-2,1,3-benzothiodiazole hydrochloride]", "values": [{"measurement": "antispastic effect compared with diazepam and baclofen", "setting": "spasticity", "result": "as effective as other antispastic agents"}, {"measurement": "tolerability compared with diazepam and baclofen", "setting": "spasticity; especially incidence of debilitating muscle weakness", "result": "more favorable tolerability profile"}, {"measurement": "metabolizing enzyme", "setting": "CYP1A2 [2]", "result": "metabolized by CYP1A2"}, {"measurement": "pharmacokinetic interaction", "setting": "[1]", "result": "without significant pharmacokinetic interaction"}]}
{"smiles": "NC(=O)C[S+]([O-])C(c1ccccc1)c1ccccc1", "note": "(stereo not drawn) [Modafinil, 2-[(diphenylmethyl)sulfinyl]acetamide]", "values": [{"measurement": "locomotor activity", "setting": "mice", "result": "increased locomotor activity"}, {"measurement": "induction of CYP2B6", "setting": "CYP2B6", "result": "slightly induce"}, {"measurement": "nocturnal activity", "setting": "monkeys", "result": "increased nocturnal activity"}, {"measurement": "induction of CYP1A2", "setting": "CYP1A2 [3]", "result": "slightly induce"}, {"measurement": "inhibition of CYP2C19", "setting": "CYP2C19", "result": "reversible inhibitors"}, {"measurement": "induction of CYP3A4", "setting": "CYP3A4", "result": "slightly induce"}]}
